Source: patent publication US20180296537A1, “METHODS AND COMPOSITIONS FOR DIAGNOSING, TREATING, AND MONITORING TREATMENT OF SHANK3 DEFICIENCY ASSOCIATED DISORDERS” (Novartis AG, priority 2015, published 2018)

Tested on: PMDS iPS-derived neurons
Test: sEPSC recordings from iPS-derived PMDS neurons
Format: cell-based, human
Text: Primary human dermal fibroblasts from neonatal (Invitrogen, Carlsbad, Calif.) and adults (University of Milano, Dr. Sala) were taken for reprogramming using the CytoTune-iPS reprogramming kit (Life Technologies, Carlsbad, Calif.) according to the standard protocol. Colonies with hallmark of pluripotent morphology were readily visible between days 17 and 20 after transduction. These were picked and subcloned multiple times on plates coated with Matrigel (BD Biosciences, San Jose, Calif.) in mTeSR medium until Sendai virus RNA could no longer be detected and the morphology looked stable. […] Karyotype analyses was performed by full-genome SNP analyses by Life&Brain Gmbh (Bonn). […] Neuronal precursors were differentiated from iPS cells by using a modified dual SMAD inhibition as described earlier (Chambers et al., 2009; Pecho-Vrieseling et al., 2014). Briefly, […] undifferentiated hiPSC were seeded in an ULA 96-well in 0.1 ml neural induction medium (20% knockout-serum replacement (Invitrogen), 0.1 mM MEM non-essential amino acids (Invitrogen), 0.1 mM 2-mercaptoethanol (Invitrogen), 75% […] (Invitrogen Gibco); Pen/Strep, 10 ng ml bhFGF (1:1,000, Invitrogen), 10 μM SB 431542 (1:1,000) (Tocris, Bristol, UK) and 1 μM LDN 193189 (1:10,000) (Stemgent) with 10 μM Rock inhibitor to prevent apoptosis (Calbiochem, Darmstadt, Germany). Two days later 0.1 ml of fresh induction media was added to the old one. The next day 30 embryoid bodies (EB) were transferred to a 35 mm matrigel dish with induction media. At day 10 EB's were cleaned to have only neuronal rosettes left. […]
Whole cell patch-clamp recordings were excluded if the access resistance exceeded 13 MΩ and changed more than 20% during the recordings. Data were recorded with a MultiClamp 700B (Molecular Devices) amplifier, filtered at 0.2 kHz, and digitised at 10 kHz. Data were acquired and analysed with Clampex 10.0, Clampfit 10.0 (Molecular Devices) and the Mini Analysis Program (Synaptosoft, Decatur, Ga.). […]

[1] = PMDS neurons, eight weeks in vitro, overnight treatment

SMILES	frequency of spontaneous EPSCs (sEPSCs) [1]	frequency of spontaneous EPSCs (sEPSCs) (neurons from second PMDS patient (PMDS-2))
CCOC(=O)C1=C(N)Oc2ccc(Cl)cc2C1C(C#N)C(=O)OCC (stereo not drawn) [SC79]	completely rescued this impairment	restorative effect of SC79 was also observed
CCN1/C(=C/C(C)=O)Sc2ccc(OC)cc21 [TG003, (Z)-1-(3-ethyl-5-methoxy-2,3-dihydrobenzothiazol-2-ylidene)propan-2-one]	completely rescued this impairment	–
